Molecules are shown by their SMILES. Several values for one entry are separate records, joined by “and”; a condition that tells them apart may be missing. Equal values may be shown once.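 Interpolation was linear, between the two tested concentrations surrounding the appropriate level; five concentrations were tested over 48 hours in 96-well plates. GI50 marks 50% less growth. The concentration for full growth arrest is given as TGI.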 Some results are limits rather than exact numbers.

Here are results for nine molecules from PubChem BioAssay (NCI).

Some test systems named below: 786-0 renal; CCRF-CEM leukemia; NCI/ADR-RES ovarian; PC-3 prostate; RPMI-8226 leukemia; SK-OV-3 ovarian; SNB-19 CNS; SNB-75 CNS; UACC-62 melanoma; NCI-H522 lung.
What all share (assay): inhibition of tumour cell growth, NCI panel, 48 h

As for `COc1ccc(CN2C(=O)C(Cl)=C(Nc3cccc(C(F)(F)F)c3)C2=O)cc1`, the GI50 in the experiment with 786-0 renal was 8.02 µM; in the experiment on CCRF-CEM leukemia, 2.54 µM; in the experiment with NCI/ADR-RES ovarian, 7.43 µM; in the experiment with PC-3 prostate, 4.61 µM; in the experiment with RPMI-8226 leukemia, 2.38 µM; with SK-OV-3 ovarian, 8.67 µM. The GI50 is 5.09 µM with SNB-19 CNS, 11.9 µM in the experiment on SNB-75 CNS and 5.33 µM in the experiment on UACC-62 melanoma. The TGI turned out to be 30.1 µM in the experiment with 786-0 renal; 17.4 µM in the experiment on CCRF-CEM leukemia; 45.6 µM in the experiment on NCI/ADR-RES ovarian; 37.3 µM in the experiment with PC-3 prostate; 23.2 µM with RPMI-8226 leukemia; 62.2 µM in the experiment with SK-OV-3 ovarian. The TGI in the experiment with SNB-19 CNS is 63.5 µM; with SNB-75 CNS, 27.3 µM; in the experiment on UACC-62 melanoma, 19.1 µM.

For `CC(C)(C)[Si](C)(C)OC1[C@@H](O[Si](C)(C)C(C)(C)C)[C@@H](CNC(=O)NC(=O)C(F)(F)F)O[C@H]1n1cnc2c(NC(=O)Nc3ccccc3)ncnc21` (stereo not given in full), the GI50 in the experiment on 786-0 renal is 6.58 µM; with CCRF-CEM leukemia, 7.31 µM; in the experiment on NCI-H522 lung, 9.14 µM; in the experiment with NCI/ADR-RES ovarian, 7.56 µM; in the experiment on PC-3 prostate, 1.82 µM; with RPMI-8226 leukemia it was 7.11 µM. The GI50 is 8.74 µM in the experiment on SK-OV-3 ovarian, 5.68 µM in the experiment on SNB-75 CNS and 7.45 µM in the experiment with UACC-62 melanoma. Besides, the TGI with 786-0 renal is 13.4 µM; with CCRF-CEM leukemia, 41.6 µM; in the experiment on NCI-H522 lung, 16.6 µM; in the experiment on NCI/ADR-RES ovarian, 14.7 µM; in the experiment on PC-3 prostate, 7.91 µM; in the experiment on RPMI-8226 leukemia it was 28.6 µM. For the same molecule, the values for the TGI in the experiment with SK-OV-3 ovarian, in the experiment with SNB-75 CNS and with UACC-62 melanoma were 15.7 µM, 12.7 µM and 15.9 µM, respectively.

For `COc1cc(-c2nc3sccn3c2-c2ccnc(NCCNS(=O)(=O)c3ccc(F)cc3)n2)ccc1F`, the GI50 is 0.503 µM in the experiment on 786-0 renal; 0.643 µM with CCRF-CEM leukemia; 2.12 µM in the experiment on NCI-H522 lung; 1.94 µM in the experiment with NCI/ADR-RES ovarian; 0.946 µM with PC-3 prostate; 3.26 µM in the experiment with SK-OV-3 ovarian. Moreover, the figures for the GI50 in the experiment on SNB-19 CNS, in the experiment with SNB-75 CNS and with UACC-62 melanoma were 5.33 µM, 1.54 µM and 0.688 µM, respectively. Further, the TGI in the experiment on 786-0 renal, with CCRF-CEM leukemia, in the experiment on NCI-H522 lung, in the experiment with NCI/ADR-RES ovarian, with PC-3 prostate and with SK-OV-3 ovarian was above 100 µM each time. In addition, the TGI with SNB-19 CNS is above 100 µM; in the experiment with SNB-75 CNS it was above 100 µM; in the experiment on UACC-62 melanoma, 2.55 µM.

As to `Cc1[cH-]c(=O)n(-c2ccccc2)n1.[Au+].[Au].c1ccc([PH+](c2ccccc2)c2ccccc2)cc1.c1ccc([PH+](c2ccccc2)c2ccccc2)cc1`, the GI50 is 1.6 µM and 4.03 µM with 786-0 renal; 22.8 µM in the experiment with CCRF-CEM leukemia; 3.46 µM and 12.4 µM in the experiment with NCI-H522 lung; 99.4 µM with RPMI-8226 leukemia; 40.4 µM in the experiment on SK-OV-3 ovarian; 12.5 µM in the experiment on SNB-19 CNS. Moreover, the GI50 was 14.7 µM in the experiment on SNB-75 CNS; 3.55 µM and 22.2 µM in the experiment on UACC-62 melanoma. The TGI with 786-0 renal was 5.53 µM and 16.6 µM; in the experiment on CCRF-CEM leukemia, above 100 µM; in the experiment on NCI-H522 lung it was 51.5 µM; with RPMI-8226 leukemia it was above 100 µM; in the experiment with SK-OV-3 ovarian, above 100 µM; in the experiment on SNB-19 CNS it was 32.7 µM. Moreover, the TGI in the experiment with SNB-75 CNS was 39.3 µM; in the experiment with UACC-62 melanoma, above 100 µM.

Turning to `CN1C(=O)C(=O)N2c3ccc(Cl)cc3C3(c4ccccc4)N=CC12O3` (stereo not given), the TGI with 786-0 renal was 28.9 µM; with CCRF-CEM leukemia, 17.5 µM; in the experiment with NCI-H522 lung, 9.14 µM; in the experiment with RPMI-8226 leukemia, 6.87 µM; in the experiment on SK-OV-3 ovarian it was 21.7 µM; in the experiment on SNB-19 CNS it was 26.8 µM. Also, the TGI worked out at 24.3 µM with SNB-75 CNS and 15.3 µM in the experiment on UACC-62 melanoma.

With `[O-][Cl+3]([O-])([O-])[O-].[O]=[Ru]=[O].c1ccc(-c2ccccn2)nc1.c1ccc(-c2ccccn2)nc1`, the GI50 in the experiment on 786-0 renal was above 100 µM; in the experiment on CCRF-CEM leukemia, above 100 µM; with NCI-H522 lung it was above 100 µM; in the experiment with RPMI-8226 leukemia, 29.7 µM; with SK-OV-3 ovarian, above 100 µM; with SNB-19 CNS, 65.2 µM. Moreover, the GI50 in the experiment on SNB-75 CNS is 40.9 µM; with UACC-62 melanoma, above 100 µM. Besides, the TGI in the experiment with 786-0 renal, with CCRF-CEM leukemia, in the experiment with NCI-H522 lung, in the experiment on RPMI-8226 leukemia, with SK-OV-3 ovarian and in the experiment with SNB-19 CNS was above 100 µM throughout. In addition, the TGI in the experiment with SNB-75 CNS and with UACC-62 melanoma was above 100 µM in each case.

For `COc1c(CC(C)=O)ccc2c1C(=O)c1ccc(C=O)c(OC(C)=O)c1C2=O`, the TGI in the experiment with 786-0 renal was 21.4 µM; in the experiment on CCRF-CEM leukemia it was 55.9 µM; in the experiment with NCI-H522 lung, 8.39 µM; in the experiment on RPMI-8226 leukemia it was 63.3 µM; with SK-OV-3 ovarian, above 100 µM; in the experiment with SNB-19 CNS it was 57.4 µM. Also, the TGI with SNB-75 CNS came out at 77.8 µM; in the experiment with UACC-62 melanoma it was 18.5 µM.

Consider `Cc1cc(Nc2ccc(C)c(Cl)c2)n2nc(C(F)(F)F)nc2n1`, for which the GI50 in the experiment on 786-0 renal is 18.8 µM; in the experiment with NCI/ADR-RES ovarian, 27.1 µM; with PC-3 prostate, 22 µM; in the experiment with RPMI-8226 leukemia it was 14 µM; in the experiment with SK-OV-3 ovarian it was 29.9 µM; with SNB-19 CNS, 29.4 µM. Besides, the GI50 was 27.7 µM with SNB-75 CNS and 19.6 µM with UACC-62 melanoma. The TGI in the experiment on 786-0 renal was 40 µM; with NCI/ADR-RES ovarian, above 100 µM; with PC-3 prostate it was above 100 µM; in the experiment with RPMI-8226 leukemia, 39 µM; with SK-OV-3 ovarian, 96.7 µM; with SNB-19 CNS, above 100 µM. For the same molecule, the TGI in the experiment with SNB-75 CNS was above 100 µM; with UACC-62 melanoma, 50.1 µM.

As to `Cn1cc(-c2cc3c(N4CCN(c5ncc([C@@](C)(N)c6ccc(F)cc6)cn5)CC4)ncnn3c2)cn1`, the GI50 is 3.15 µM with 786-0 renal; 2.87 µM in the experiment with CCRF-CEM leukemia; 1.99 µM with PC-3 prostate; 9.63 µM in the experiment with SNB-19 CNS; 1.39 µM in the experiment on SNB-75 CNS; 5.23 µM in the experiment with UACC-62 melanoma. Moreover, the TGI with 786-0 renal, in the experiment on CCRF-CEM leukemia, with PC-3 prostate, with SNB-19 CNS, with SNB-75 CNS and in the experiment with UACC-62 melanoma was above 100 µM in each case.
